Experimental data as given in patent publication US10709745B2, “Tropic cell based virotherapy for the treatment of cancer” (priority 2013, dated 2020).

Key:
[1] = system: GBM43; assay: TMZ IC50 with simultaneous XRT; assay type: cell-based; conditions: Homo sapiens; treated with XRT (2 Gy) simultaneously
Experimental: For all studies, the cells and mice received XRT in accordance with the University of Chicago's radiation safety guidelines and protocols. All cells received a single dose of 2 Gy XRT. For animal studies, 10 Gy fractioned dose radiotherapy (2 Gy for 5 consecutive days) was used. The animals were irradiated with a lead cover shielding their entire body, with only their heads exposed. […] For in vivo studies, the mice received 2.5, 5, 10, or 30 mg/kg TMZ via intraperitoneal injection.

[2] = system: GBM43 glioma xenografts; assay: Intracranial GBM43 xenograft: TMZ, XRT and CRAd-S-pk7-loaded NSCs; assay type: in vivo, nude mice
Experimental: FIGS. 43A, 43B and 43C illustrate the in vivo efficacy of CRAd-Survivin-pk7 (CRAd-S-pk7)-loaded NSCs and XRT-TMZ treatment against human-derived glioma xenografts according to one embodiment. Intracranial GBM43 (3.5×10^5 cells per animal) was established, and the animals were treated for 5 consecutive days beginning on day 6 after tumor cell implantation. (FIG. 43A): Survival of animals treated with escalating doses of intraperitoneally administered TMZ (0, 5, 10, or 30 mg/kg). (FIG. 43B): Survival of animals treated with XRT (2 Gy) or a combination of XRT (2 Gy) and TMZ (2.5, 5, 10, or 30 mg/kg). (FIG. 43C): Survival of animals treated with the optimized dose of 2 Gy XRT and 5 mg/kg TMZ in addition to 5×10^5 or 3×10^6 NSCs loaded with 50 infectious units of CRAd-S-pk7. […] Abbreviations: ND, not determined; ns, no significance; NSC, neural stem cell; TMZ, temozolomide; XRT, radiation therapy.
FIGS. 45A and 45B illustrate the scheduling of CRAd-Survivin-pk7 (CRAd-S-pk7)-loaded NSC administration in vivo according to one embodiment. (FIG. 45A): Survival of animals treated with both therapeutic scheduling protocols. […] For each treatment group, five images were taken using the […]20 objective, and the number of positive cells was quantified per field of view (right). *, p<0.05; **, p<0.01; ***, p<0.001. […]

[3] = human, in vivo; cited from earlier work

With `Cn1nnc2c(C(N)=O)ncn2c1=O` [TMZ, temozolomide] the IC50 [1] was 37 µM, the “increase in survival vs XRT-treated animals” value ([2]; TMZ 5 mg/kg plus XRT 2 Gy ×5) was 7 days and the median survival ([2]; TMZ 5 mg/kg plus XRT 2 Gy ×5 (FIG. 43B)) was 31 days. For the same compound, the “intratumoral concentration (likely range)” value [3] was 5 to 50 µM, the “peak concentration in patient's blood” value [3] was 50 µmol/L and the “peak concentration in the cerebral spinal fluid” value [3] was 5 µmol/L.
